PubChem BioAssay AID1963965 (Molecular Pharmacology Branch, DTP, NCI, 2024)

System: 996289-038-R-J1-PDC spheroid viability
Assay: Anticancer human tumor 996289-038-R-J1-PDC patient-derived colon adenocarcinoma cell line growth inhibition [PI3K]
Settings: spheroids with HUVEC and MSC; for IC50: curve of first compound; for viability, T/C: stronger effect = lower value
Procedure, shortened: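 Three cell types, namely tumor cells, endothelial cells and mesenchymal stem cells, formed each spheroid. Combinations with four PI3K inhibitors were screened at clinically achievable concentrations decreasing by half-log, and spheroid viability was recorded.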

[1] = second compound 0.00316 µM, first compound 0.0316 µM
[2] = second compound 0.00316 µM, first compound 0.1 µM
[3] = second compound 0.01 µM, first compound 0.0316 µM
[4] = second compound 0.01 µM, first compound 0.1 µM
[5] = second compound 0.0316 µM, first compound 0.0316 µM
[6] = second compound 0.0316 µM, first compound 0.1 µM
[7] = second compound 0.1 µM, first compound 0.0316 µM
[8] = second compound 0.1 µM, first compound 0.1 µM
[9] = second compound 0.316 µM, first compound 0.0316 µM
[10] = second compound 0.316 µM, first compound 0.1 µM
[11] = second compound 1 µM, first compound 0.0316 µM
[12] = second compound 1 µM, first compound 0.1 µM
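Note: spheroids exposed to compounds for seven days before viability read.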
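Throughout, for viability, T/C: luminescence used as a proxy for viable cell amount; percent viability relative to DMSO vehicle control as 100%.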

Question: Which IC50 (second compound 0.00316 µM) does the source give for C[C@@H](NC(=O)c1ncnc(N)c1Cl)c1ncc(C(=O)Nc2cc(C(F)(F)F)c(Cl)cn2)s1 + COc1c(OCCCN2CCOCC2)ccc2c3n(c(=NC(=O)c4cnc(N)nc4)nc12)CCN3 here?
Answer: Its IC50 is greater than 10000 nM.

Question: What about the IC50 (second compound 0.01 µM) of the same molecule?
Answer: The IC50 was greater than 10000 nM.

Question: And the IC50 (second compound 0.0316 µM)?
Answer: The IC50 was greater than 10000 nM.

Question: What about the IC50 (second compound 0.1 µM) of the same molecule?
Answer: The IC50 was greater than 10000 nM.

Question: And the IC50 (second compound 0.316 µM)?
Answer: Its IC50 is less than 31.6 nM.

Question: What about the IC50 (second compound 1 µM) of the same molecule?
Answer: The IC50 was less than 31.6 nM.

Question: And the viability, T/C [1]?
Answer: The viability, T/C was 89.7%.

Question: And the viability, T/C [2]?
Answer: Its viability, T/C is 88%.

Question: And the viability, T/C (second compound 0.00316 µM, first compound 0.316 µM)?
Answer: Its viability, T/C is 95.1%.

Question: And the viability, T/C (second compound 0.00316 µM, first compound 1 µM)?
Answer: Its viability, T/C is 112%.

Question: What about the viability, T/C (second compound 0.00316 µM, first compound 3.16 µM) of the same molecule?
Answer: Its viability, T/C is 131%.

Question: What about the viability, T/C (second compound 0.00316 µM, first compound 10 µM) of the same molecule?
Answer: The viability, T/C was 136%.

Question: What about the viability, T/C [3] of the same molecule?
Answer: Its viability, T/C is 96.6%.

Question: And the viability, T/C [4]?
Answer: Its viability, T/C is 87%.

Question: And the viability, T/C (second compound 0.01 µM, first compound 0.316 µM)?
Answer: The viability, T/C was 96.2%.

Question: And the viability, T/C (second compound 0.01 µM, first compound 1 µM)?
Answer: Its viability, T/C is 116%.

Question: And the viability, T/C (second compound 0.01 µM, first compound 3.16 µM)?
Answer: The viability, T/C was 98%.

Question: And the viability, T/C (second compound 0.01 µM, first compound 10 µM)?
Answer: Its viability, T/C is 109%.

Question: And the viability, T/C [5]?
Answer: The viability, T/C was 94.3%.

Question: And the viability, T/C [6]?
Answer: Its viability, T/C is 78.9%.

Question: What about the viability, T/C (second compound 0.0316 µM, first compound 0.316 µM) of the same molecule?
Answer: The viability, T/C was 86.7%.

Question: And the viability, T/C (second compound 0.0316 µM, first compound 1 µM)?
Answer: The viability, T/C was 81.9%.

Question: What about the viability, T/C (second compound 0.0316 µM, first compound 3.16 µM) of the same molecule?
Answer: The viability, T/C was 92.7%.

Question: What about the viability, T/C (second compound 0.0316 µM, first compound 10 µM) of the same molecule?
Answer: Its viability, T/C is 77.8%.

Question: And the viability, T/C [7]?
Answer: The viability, T/C was 68.7%.

Question: What about the viability, T/C [8] of the same molecule?
Answer: Its viability, T/C is 57.1%.

Question: And the viability, T/C (second compound 0.1 µM, first compound 0.316 µM)?
Answer: Its viability, T/C is 69.2%.

Question: What about the viability, T/C (second compound 0.1 µM, first compound 1 µM) of the same molecule?
Answer: Its viability, T/C is 67.7%.

Question: And the viability, T/C (second compound 0.1 µM, first compound 3.16 µM)?
Answer: The viability, T/C was 71.3%.

Question: And the viability, T/C (second compound 0.1 µM, first compound 10 µM)?
Answer: The viability, T/C was 58.7%.

Question: And the viability, T/C [9]?
Answer: The viability, T/C was 42%.

Question: What about the viability, T/C [10] of the same molecule?
Answer: Its viability, T/C is 36.2%.

Question: And the viability, T/C (second compound 0.316 µM, first compound 0.316 µM)?
Answer: Its viability, T/C is 35.7%.

Question: What about the viability, T/C (second compound 0.316 µM, first compound 1 µM) of the same molecule?
Answer: The viability, T/C was 52.9%.

Question: What about the viability, T/C (second compound 0.316 µM, first compound 3.16 µM) of the same molecule?
Answer: The viability, T/C was 43.3%.

Question: And the viability, T/C (second compound 0.316 µM, first compound 10 µM)?
Answer: The viability, T/C was 37.3%.

Question: And the viability, T/C [11]?
Answer: Its viability, T/C is 22.3%.

Question: What about the viability, T/C [12] of the same molecule?
Answer: Its viability, T/C is 16.1%.

Question: What about the viability, T/C (second compound 1 µM, first compound 0.316 µM) of the same molecule?
Answer: The viability, T/C was 19.3%.

Question: And the viability, T/C (second compound 1 µM, first compound 1 µM)?
Answer: The viability, T/C was 21.7%.

Question: What about the viability, T/C (second compound 1 µM, first compound 3.16 µM) of the same molecule?
Answer: The viability, T/C was 29%.

Question: What about the viability, T/C (second compound 1 µM, first compound 10 µM) of the same molecule?
Answer: The viability, T/C was 22.6%.

Question: What does the source list for Cn1ncnc1[C@H]1c2n[nH]c(=O)c3cc(F)cc(c23)N[C@@H]1c1ccc(F)cc1 + COc1c(OCCCN2CCOCC2)ccc2c3n(c(=NC(=O)c4cnc(N)nc4)nc12)CCN3?
Answer: IC50 (second compound 0.00316 µM): > 100 nM; IC50 (second compound 0.01 µM): > 100 nM; IC50 (second compound 0.0316 µM): > 100 nM; IC50 (second compound 0.1 µM): > 100 nM; IC50 (second compound 0.316 µM): < 0.316 nM; IC50 (second compound 1 µM): < 0.316 nM; viability, T/C (second compound 0.00316 µM, first compound 0.000316 µM): 110%; viability, T/C (second compound 0.00316 µM, first compound 0.001 µM): 106%; viability, T/C (second compound 0.00316 µM, first compound 0.00316 µM): 102%; viability, T/C (second compound 0.00316 µM, first compound 0.01 µM): 112%; viability, T/C [1]: 103%; viability, T/C [2]: 103%; viability, T/C (second compound 0.01 µM, first compound 0.000316 µM): 97.7%; viability, T/C (second compound 0.01 µM, first compound 0.001 µM): 92.6%; viability, T/C (second compound 0.01 µM, first compound 0.00316 µM): 95.3%; viability, T/C (second compound 0.01 µM, first compound 0.01 µM): 100%; viability, T/C [3]: 97.3%; viability, T/C [4]: 100%; viability, T/C (second compound 0.0316 µM, first compound 0.000316 µM): 87.8%; viability, T/C (second compound 0.0316 µM, first compound 0.001 µM): 91.3%; viability, T/C (second compound 0.0316 µM, first compound 0.00316 µM): 80.3%; viability, T/C (second compound 0.0316 µM, first compound 0.01 µM): 79.4%; viability, T/C [5]: 97.7%; viability, T/C [6]: 70.8%; viability, T/C (second compound 0.1 µM, first compound 0.000316 µM): 69.4%; viability, T/C (second compound 0.1 µM, first compound 0.001 µM): 68.4%; viability, T/C (second compound 0.1 µM, first compound 0.00316 µM): 67.4%; viability, T/C (second compound 0.1 µM, first compound 0.01 µM): 63.3%; viability, T/C [7]: 64.6%; viability, T/C [8]: 48.6%; viability, T/C (second compound 0.316 µM, first compound 0.000316 µM): 41.8%; viability, T/C (second compound 0.316 µM, first compound 0.001 µM): 39.1%; viability, T/C (second compound 0.316 µM, first compound 0.00316 µM): 46.8%; viability, T/C (second compound 0.316 µM, first compound 0.01 µM): 35.3%; viability, T/C [9]: 44.2%; viability, T/C [10]: 43.8%; viability, T/C (second compound 1 µM, first compound 0.000316 µM): 22.6%; viability, T/C (second compound 1 µM, first compound 0.001 µM): 22.6%; viability, T/C (second compound 1 µM, first compound 0.00316 µM): 23.1%; viability, T/C (second compound 1 µM, first compound 0.01 µM): 18.3%; viability, T/C [11]: 25.7%; viability, T/C [12]: 20.8%
